Measurements: article PMC6968775, “Assessment of contribution of BCRP to intestinal absorption of various drugs using portal‐systemic blood concentration difference model in mice” (Pharmacology Research & Perspectives, 2020)

How the values were obtained:
P‐gp [1] = conditions: in vivo (mice); calculated from F a F g in WT, Bcrp(−/−) and Mdr1a/1b(−/−) mice (Eq. 12)
[2] = Pharmacokinetics after iv and oral administration, P‐S difference method, wild‐type mice; format: in vivo
Description: (§1) Male Mdr1a/1b(−/−) and Bcrp(−/−) mice, and WT mice of the same genetic background (FVB) were obtained from Taconic Farms (Germantown, NY, USA). […] Food and water were available ad libitum. All experiments were carried out in accordance with the principles and procedures outlined in the National Institutes of Health Guide for the Care and Use of Laboratory.
(§2) All the mice were fasted overnight with free access to tap water. In the intravenous administration studies, model compounds were administered via the tail vein at doses of 1 mg/kg (n = 3). Following administration, blood samples were collected from the abdominal vein of the anesthetized mice at 0.083, 0.17, 0.5, 1, 2, 4, and 8 hours. […] Following administration, blood samples were taken from the portal and abdominal veins of the anesthetized mice at 0.083, 0.17, 0.5, 1, 2, 4, and 8 hours. The plasma samples were separated by centrifugation at 14 000g for 10 minutes at 4°C and stored at −30°C until analysis.
(§3) After organic layer was evaporated at 60°C, the resultant residues were dissolved in a mobile phase. For the determination of topotecan and sulfasalazine, plasma samples were mixed with acetonitrile, centrifuged at 750 g for 10 minutes at 4°C, and the supernatants were collected. After the evaporation of the supernatants, the residues were dissolved in a mobile phase, and acidified with phosphoric acid for topotecan. All drugs were analyzed by HPLC system (Shimadzu LC‐10AS pump, Shimadzu SIL‐10A autosampler) equipped with a reverse‐phase column (COSMOSIL 5C18‐AR‐II, 3.5‐μm […], 4.6 × 150 mm).
(§4) Elimination rate constant (k e) was determined by the least squares regression analysis of plasma concentration vs time curve. Elimination half‐life (t 1/2) was calculated using Eq.1:(1) t1/2=ln2/ke
(§5) Area under plasma concentration‐time curve (AUC) and area under the first moment curve (AUMC) from time 0 to infinity were calculated by trapezoidal rule.
(§6) Absorption rate constant (k a) after oral administration was calculated by the nonlinear least squares fitting with program MULTI.12
(§7) BA was calculated by Eq.5:(7) BA=AUCoral/AUCiv×Doseiv/Doseoral×100 where AUCoral is AUC after oral administration. Doseiv and Doseoral are administered dose in the intravenous and oral administration study, respectively.
(§8) Hepatic availability (F h) was calculated by Eq.6:(8) Fh=F/Fa×Fg

[3] = Blood/plasma concentration ratio (R b) in fresh whole blood; format: in vitro ADME, FVB mice; conditions: fresh whole blood, FVB mouse whole blood, 37°C
Description: Similarly, the model compounds were added to plasma, and reference blood samples were obtained according to the same procedure. These concentrations of drugs in each sample were analyzed using HPLC (C B and C P, respectively). R b value was calculated by dividing C B by C P.

P‐gp [4] = conditions: Caco‐2 permeability study; unpublished data; ref Fujita et al, manuscript in preparation; cited from earlier work
[5] = human; cited from earlier work
[6] = Pharmacokinetics after iv and oral administration, P‐S difference method, Mdr1a/1b(−/−) mice; format: in vivo
Description: as §1, §2, §3, §4, §5, §6, §7, §8

[7] = Pharmacokinetics after iv and oral administration, P‐S difference method, Bcrp(−/−) mice; format: in vivo
Description: as §1, §2, §3, §4, §5, §6, §7, §8

[8] = wild‐type mice, p.o. (ciprofloxacin 1, nitrofurantoin 2, topotecan 1, sulfasalazine 5 mg/kg)
[9] = wild‐type mice, p.o. (ciprofloxacin 1, nitrofurantoin 2, topotecan 1, sulfasalazine 5 mg/kg), systemic (sys) plasma
[10] = Mdr1a/1b(−/−) mice, p.o. (ciprofloxacin 1, nitrofurantoin 2, topotecan 1, sulfasalazine 5 mg/kg)
[11] = male, Mdr1a/1b(−/−) (FVB background), mouse, systemic plasma (abdominal vein), po
[12] = Bcrp(−/−) mice, p.o. (ciprofloxacin 1, nitrofurantoin 2, topotecan 1, sulfasalazine 5 mg/kg)
[13] = Bcrp(−/−) mice, p.o. (ciprofloxacin 1, nitrofurantoin 2, topotecan 1, sulfasalazine 5 mg/kg), systemic (sys) plasma

R P‐gp (rate of P‐gp contribution) (P‐gp [1]): 0.09
k a, wt ([2]; Table 5 summary, WT mice, oral administration): 1.40
C0 ([2]; male, FVB (wild-type), mouse, plasma (systemic, abdominal vein), WT mice, intravenous injection 1 mg/kg, read-out: extrapolated plasma concentration at zero time (C 0)): 11.7 µM
clearance ([2]; male, FVB (wild-type), mouse, plasma (systemic, abdominal vein), wild‐type mice, iv 1 mg/kg, read-out: CL tot (converted)): 11 mL/min/kg
Vd ([2]; male, FVB (wild-type), mouse, plasma (systemic, abdominal vein), wild‐type mice, iv 1 mg/kg, read-out: Vdss): 0.59 L/kg
half-life ([2]; male, FVB (wild-type), mouse, plasma, iv, 1 mg/kg, wild‐type mice, iv 1 mg/kg): 1.95 h
AUC(0-inf) ([2]; male, FVB (wild-type), mouse, plasma, iv, 1 mg/kg, wild‐type mice, iv 1 mg/kg, read-out: AUC 0→∞): 3.82 µM·h
Tmax ([2]; male, FVB (wild-type), mouse, portal vein plasma, po): 0.17 h
AUC(0-inf) ([2]; male, FVB (wild-type), mouse, portal vein plasma, po, wild‐type mice, p.o. (ciprofloxacin 1, nitrofurantoin 2, topotecan 1, sulfasalazine 5 mg/kg), portal vein (pv) plasma, read-out: AUC 0→∞ (AUCpv)): 2.2 µM·h
Tmax ([2]; male, FVB (wild-type), mouse, systemic plasma (abdominal vein), po): 0.5 h
half-life ([2]; male, FVB (wild-type), mouse, systemic plasma (abdominal vein), po, wild‐type mice, p.o. (ciprofloxacin 1, nitrofurantoin 2, topotecan 1, sulfasalazine 5 mg/kg), systemic (sys) plasma): 1 h
AUC(0-inf) ([2]; male, FVB (wild-type), mouse, systemic plasma (abdominal vein), po, wild‐type mice, p.o. (ciprofloxacin 1, nitrofurantoin 2, topotecan 1, sulfasalazine 5 mg/kg), systemic (sys) plasma, read-out: AUC 0→∞ (AUCsys)): 1.94 µM·h
F h [2, 8]: 60.1%
k a [2, 8]: 1.40 h⁻¹
BA ([2]; wild‐type mice, p.o. (ciprofloxacin 1, nitrofurantoin 2, topotecan 1, sulfasalazine 5 mg/kg) vs iv 1 mg/kg): 10.2%
F a F g ([2]; wild‐type mice, p.o. (ciprofloxacin 1, nitrofurantoin 2, topotecan 1, sulfasalazine 5 mg/kg), P‐S difference method): 16.9%
AUC 0→∞ (AUCpv) ([2]; wild‐type mice, p.o. (ciprofloxacin 1, nitrofurantoin 2, topotecan 1, sulfasalazine 5 mg/kg), portal vein (pv) plasma): 2.2 µM·h
AUC 0→∞ (AUCsys) [2, 9]: 1.94 µM·h
t 1/2 [2, 9]: 1.11 h
blood plasma ratio at 15 min, 1 µg/mL [3]: 1.28 ± 0.03
F h [6, 10]: 55.6%
k a [6, 10]: 0.93 h⁻¹
BA ([6]; Mdr1a/1b(−/−) mice, p.o. (ciprofloxacin 1, nitrofurantoin 2, topotecan 1, sulfasalazine 5 mg/kg) vs iv 1 mg/kg): 11.5%
F a F g ([6]; Mdr1a/1b(−/−) mice, p.o. (ciprofloxacin 1, nitrofurantoin 2, topotecan 1, sulfasalazine 5 mg/kg), P‐S difference method): 30%
k a, P‐gp ([6]; Table 5 summary, Mdr1a/1b(−/−) mice, oral administration): 0.93
(F a F g)P‐gp ([6]; as fraction, Mdr1a/1b(−/−) mice, oral administration): 0.30
clearance ([6]; male, FVB Mdr1a/1b(−/−), mouse, plasma (systemic, abdominal vein), Mdr1a/1b(−/−) mice, iv 1 mg/kg, read-out: CL tot (converted)): 9.83 mL/min/kg
Vd ([6]; male, FVB Mdr1a/1b(−/−), mouse, plasma (systemic, abdominal vein), Mdr1a/1b(−/−) mice, iv 1 mg/kg, read-out: Vdss): 0.45 L/kg
half-life ([6]; male, Mdr1a/1b(−/−) (FVB background), mouse, plasma, Mdr1a/1b(−/−) mice, iv 1 mg/kg): 1.63 h
AUC(0-inf) ([6]; male, Mdr1a/1b(−/−) (FVB background), mouse, plasma, Mdr1a/1b(−/−) mice, iv 1 mg/kg, read-out: AUC 0→∞): 4.28 µM·h
Tmax ([6]; male, Mdr1a/1b(−/−) (FVB background), mouse, portal vein plasma, po): 0.17 h
Tmax [6, 11]: 0.5 h
half-life [6, 11]: 1.11 h
F h [7, 12]: 73.2%
k a [7, 12]: 0.49 h⁻¹
BA ([7]; Bcrp(−/−) mice, p.o. (ciprofloxacin 1, nitrofurantoin 2, topotecan 1, sulfasalazine 5 mg/kg) vs iv 1 mg/kg): 95.2%
AUC 0→∞ (AUCpv) ([7]; Bcrp(−/−) mice, p.o. (ciprofloxacin 1, nitrofurantoin 2, topotecan 1, sulfasalazine 5 mg/kg), portal vein (pv) plasma): 290 000 nmol/L·h
AUC 0→∞ (AUCsys) [7, 13]: 288 000 nmol/L·h
t 1/2 [7, 13]: 7.07 h
k a, bcrp ([7]; Table 5 summary, Bcrp(−/−) mice, oral administration): 0.49
(F a F g)bcrp ([7]; as fraction, Bcrp(−/−) mice, oral administration): 1.30
half-life ([7]; male, Bcrp(−/−) (FVB background), mouse, plasma, iv, 1 mg/kg, Bcrp(−/−) mice, iv 1 mg/kg): 3.57 h
Tmax ([7]; male, Bcrp(−/−) (FVB background), mouse, portal vein plasma, po): 2 h
Tmax ([7]; male, Bcrp(−/−) (FVB background), mouse, systemic plasma (abdominal vein), po): 2 h
AUC(0-inf) ([7]; male, FVB Bcrp(−/−), mouse, plasma (systemic, abdominal vein), iv, 1 mg/kg, Bcrp(−/−) mice, iv 1 mg/kg, read-out: AUC 0→∞): 60.5 µM·h
C0 ([7]; male, FVB Bcrp(−/−), mouse, plasma (systemic, abdominal vein), Bcrp(−/−) mice, intravenous injection 1 mg/kg, read-out: extrapolated plasma concentration at zero time (C 0)): 18.1 µM
clearance ([7]; male, FVB Bcrp(−/−), mouse, plasma (systemic, abdominal vein), Bcrp(−/−) mice, iv 1 mg/kg, read-out: CL tot (converted)): 0.667 mL/min/kg
Vd ([7]; male, FVB Bcrp(−/−), mouse, plasma (systemic, abdominal vein), Bcrp(−/−) mice, iv 1 mg/kg, read-out: Vdss): 0.19 L/kg
AUC(0-inf) ([7]; male, FVB Bcrp(−/−), mouse, portal vein plasma, po, Bcrp(−/−) mice, p.o. (ciprofloxacin 1, nitrofurantoin 2, topotecan 1, sulfasalazine 5 mg/kg), portal vein (pv) plasma, read-out: AUC 0→∞ (AUCpv)): 290 µM·h
half-life ([7]; male, FVB Bcrp(−/−), mouse, systemic plasma (abdominal vein), po, Bcrp(−/−) mice, p.o. (ciprofloxacin 1, nitrofurantoin 2, topotecan 1, sulfasalazine 5 mg/kg), systemic (sys) plasma): 7 h
AUC(0-inf) ([7]; male, FVB Bcrp(−/−), mouse, systemic plasma (abdominal vein), po, Bcrp(−/−) mice, p.o. (ciprofloxacin 1, nitrofurantoin 2, topotecan 1, sulfasalazine 5 mg/kg), systemic (sys) plasma, read-out: AUC 0→∞ (AUCsys)): 288 µM·h
AUC pv and AUC sys after oral administration, Bcrp(−/−) mice vs WT mice ([7]; oral administration): more than 130 fold
SMILES: O=C(O)c1cc(/N=N/c2ccc(S(=O)(=O)Nc3ccccn3)cc2)ccc1O [sulfasalazine, Sulfasalazine]
AQp‐gp in vitro (Caco‐2) (P‐gp [4]): 0.05
AUC after oral administration, patients heterozygous variant for the BCRP SNP vs normal BCRP [5]: approximately 2 fold
human BA [5]: < 15%
human F a F g [5]: 12%
